Our source for the GI50 and TGI values is PubChem BioAssay (NCI).

Among the test systems are CAKI-1 renal; HCT-116 colon; IGROV1 ovarian; NCI-H460 lung; PC-3 prostate; SF-268 CNS; SK-MEL-28 melanoma; TK-10 renal; UACC-62 melanoma; UO-31 renal.
Common to all, as to assay: DTP human tumour cell line panel, 48 h

Each structure is given as a SMILES string.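 Following 48 hours of exposure in 96-well plates, responses at five concentrations were used to interpolate endpoints linearly. Abbreviation: GI50, concentration required for 50% inhibition of growth. At the TGI there is no net growth.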

Regarding `N=C(N)c1ccc(-c2ccc(-c3cccs3)s2)nc1`, the GI50 is 2.13 µM with CAKI-1 renal; 1.38 µM in the test on HCT-116 colon; 1.76 µM with IGROV1 ovarian; 0.0334 µM with NCI-H460 lung; 1.88 µM with PC-3 prostate; 2.74 µM with SF-268 CNS. In addition, the GI50 in the test on SK-MEL-28 melanoma was 1.7 µM; in the test with TK-10 renal, 1.03 µM; with UACC-62 melanoma, 1.7 µM; in the test on UO-31 renal, 0.545 µM. Also, the TGI in the test with CAKI-1 renal amounted to 6.83 µM; with HCT-116 colon, 2.79 µM; in the test with IGROV1 ovarian it was 3.56 µM; with NCI-H460 lung, 0.449 µM; with PC-3 prostate, 6.11 µM; in the test with SF-268 CNS, 10.7 µM. The TGI in the test on SK-MEL-28 melanoma came out at 3.65 µM; in the test on TK-10 renal, 2.33 µM; with UACC-62 melanoma, 3.22 µM; in the test with UO-31 renal it was 3.92 µM.
`O=C(CCCCCCC(=O)Nc1ccc2c(c1)/C(=C/c1ccc[nH]1)C(=O)N2)NO`: the GI50 was 2.33 µM in the test on CAKI-1 renal; 0.23 µM with HCT-116 colon; 1.61 µM in the test on IGROV1 ovarian; 2.67 µM in the test with NCI-H460 lung; 0.851 µM in the test on PC-3 prostate; 1.05 µM in the test with SF-268 CNS. Also, the GI50 with SK-MEL-28 melanoma is 0.372 µM; with TK-10 renal, 0.795 µM; in the test with UACC-62 melanoma, 0.287 µM; with UO-31 renal, 0.963 µM. The TGI is more than 100 µM in the test with CAKI-1 renal; 2.87 µM in the test on HCT-116 colon; 7.9 µM in the test on IGROV1 ovarian; more than 100 µM with NCI-H460 lung; more than 100 µM in the test on PC-3 prostate; 13.3 µM in the test on SF-268 CNS. The TGI with SK-MEL-28 melanoma is 9.3 µM; in the test with TK-10 renal, 7.78 µM; in the test with UACC-62 melanoma, 1.39 µM; with UO-31 renal, more than 100 µM.
As for `OC(CNc1ccnc2cc(Cl)ccc12)CNC1CCCCC1` (stereo not given), the GI50 was 1.84 µM in the test with CAKI-1 renal; 4.66 µM in the test on HCT-116 colon; 10.1 µM with IGROV1 ovarian; 13.8 µM in the test with NCI-H460 lung; 8.08 µM in the test with PC-3 prostate; 8.23 µM in the test with SF-268 CNS. Also, the GI50 in the test with SK-MEL-28 melanoma was 1.76 µM; in the test with TK-10 renal, 3.61 µM; in the test on UACC-62 melanoma it was 2.15 µM; in the test on UO-31 renal it was 2.22 µM. In addition, the TGI in the test on CAKI-1 renal was 4.05 µM; in the test with HCT-116 colon, 16.7 µM; in the test on IGROV1 ovarian it was 24.4 µM; in the test on NCI-H460 lung it was 30.2 µM; in the test on PC-3 prostate it was 28.7 µM; in the test on SF-268 CNS, 21.9 µM. The TGI came to 3.31 µM with SK-MEL-28 melanoma, 13.6 µM with TK-10 renal, 5.2 µM in the test with UACC-62 melanoma and 11 µM with UO-31 renal.
Turning to `C=C1CC[C@@H]2[C@](C)(COC(C)=O)[C@H](OC(C)=O)CC[C@@]2(C)[C@@H]1C/C=C1/C(=O)OC[C@H]1OC(C)=O`, the GI50 was 6.67 µM in the test on CAKI-1 renal; 1.45 µM in the test on HCT-116 colon; 2.41 µM in the test on IGROV1 ovarian; 18.6 µM in the test with NCI-H460 lung; 6.07 µM with PC-3 prostate; 8.56 µM with SF-268 CNS. The GI50 is 1.75 µM in the test with SK-MEL-28 melanoma, 3.81 µM in the test on TK-10 renal, 3.37 µM with UACC-62 melanoma and 1.91 µM with UO-31 renal. Further, the TGI was 19.6 µM in the test on CAKI-1 renal; 2.98 µM in the test on HCT-116 colon; 6.23 µM in the test with IGROV1 ovarian; 37.7 µM with NCI-H460 lung; 19.9 µM in the test with PC-3 prostate; 22.8 µM with SF-268 CNS. For the same compound, the TGI with SK-MEL-28 melanoma is 3.38 µM; with TK-10 renal, 13.3 µM; in the test on UACC-62 melanoma, 13.5 µM; in the test on UO-31 renal, 3.89 µM.
As to `Cc1nn(-c2nc3ccccc3[nH]2)c2c1C(c1ccc3c(c1)OCO3)CC(=O)N2` (stereo not given), the GI50 in the test with CAKI-1 renal is 2.55 µM; in the test with HCT-116 colon, 2.24 µM; in the test on IGROV1 ovarian it was 2.36 µM; with NCI-H460 lung, 2.36 µM; in the test with PC-3 prostate, 3.16 µM; with SF-268 CNS it was 3.38 µM. For the same compound, the GI50 with SK-MEL-28 melanoma is 3.39 µM; in the test on TK-10 renal, 3.14 µM; in the test on UACC-62 melanoma, 1.66 µM; in the test with UO-31 renal it was 2.73 µM. The TGI with CAKI-1 renal worked out at 7.04 µM; in the test with HCT-116 colon it was 4.73 µM; in the test on IGROV1 ovarian, 4.57 µM; with NCI-H460 lung, 5.55 µM; in the test on PC-3 prostate, 22 µM; in the test on SF-268 CNS, 11.7 µM. In addition, the TGI with SK-MEL-28 melanoma was 32.6 µM; with TK-10 renal it was more than 25.8 µM; in the test with UACC-62 melanoma, 3.13 µM; in the test on UO-31 renal it was 8.14 µM.
In the case of `CN1CCn2c(c(Sc3ccc(C(=O)NO)cc3)c3ccccc32)C1=O`, the GI50 is 3.86 µM with CAKI-1 renal; 1.59 µM in the test with HCT-116 colon; 1.82 µM in the test with IGROV1 ovarian; 2.19 µM with NCI-H460 lung; 1.96 µM in the test on PC-3 prostate; 1.92 µM in the test on SF-268 CNS. For the same compound, the GI50 in the test on SK-MEL-28 melanoma was 1.94 µM; in the test with TK-10 renal it was 2.09 µM; in the test on UACC-62 melanoma, 1.44 µM; in the test with UO-31 renal it was 3.1 µM. Further, the TGI came to 11 µM in the test on CAKI-1 renal; 3.55 µM in the test on HCT-116 colon; 3.85 µM in the test on IGROV1 ovarian; 6.58 µM in the test on NCI-H460 lung; 4.57 µM in the test with PC-3 prostate; 3.85 µM in the test on SF-268 CNS. The TGI with SK-MEL-28 melanoma amounted to 4.94 µM; in the test on TK-10 renal it was 5.29 µM; with UACC-62 melanoma, 3.24 µM; with UO-31 renal, 13.6 µM.
`COc1cc(/C=C/C(=O)c2c(C)n([O-])c3ccc(Cl)cc3[n+]2=O)cc(OC)c1OC`: the GI50 was more than 100 µM with CAKI-1 renal; 76 µM in the test on HCT-116 colon; 35.4 µM in the test on IGROV1 ovarian; 56.6 µM with NCI-H460 lung; 27.5 µM in the test with PC-3 prostate; 15.4 µM with SF-268 CNS. The GI50 is more than 100 µM with SK-MEL-28 melanoma, 26.5 µM in the test on TK-10 renal, more than 100 µM with UACC-62 melanoma and 1.55 µM in the test on UO-31 renal. Moreover, the TGI in the test on CAKI-1 renal, in the test with HCT-116 colon, in the test with IGROV1 ovarian, in the test with NCI-H460 lung, with PC-3 prostate and in the test with SF-268 CNS was more than 100 µM each time. Also, the TGI in the test with SK-MEL-28 melanoma was more than 100 µM; in the test on TK-10 renal, 97.7 µM; in the test on UACC-62 melanoma, more than 100 µM; in the test with UO-31 renal, 5.47 µM.
